Laboratory results reported in patent US12123059B2, “Predicting cardiotoxicity risk in cancer patients receiving anthracyclines chemotherapy” (Fundación Para La Investigación Del Hospital Universitario …, priority 2018, dated 2024).

Tested on: human cardiomyocytes
Experiment: Modulation of miRNA copy number by Doxorubicin in human cardiomyocytes in culture
Type: cell-based
Conditions: Doxorubicin 1 μM for 24 h, FIG. 4
Procedure: FIG. 4. (A, B) Graphics showing modulation of miRNAs by Doxorubicin in human cardiomyocytes and patients' serum. Left panels show copy number of indicated miRNAs in cardiomyocytes in culture before or after the addition of Doxorubicin (1 μM) for 24 h. Right panels show copy numbers of indicated miRNAs as detected by RNAseq in serum from control patients and cases and expressed as mean±SEM (N=10 in each case) before or after completion of anthracycline chemotherapy. Only miRNAs showing a similar tendency in cells and patients' serum are illustrated. *P<0.05.
The specific signature of miRNAs has been detected in serum. Since the pathways related to miRNAs are linked to cardiomyocytes, the copy number of the miRNAs of interest in human cardiomyocytes was also measured. As observed in FIG. 4, the miRNAs previously detected in serum were also present in human cardiomyocytes (left panels) and their expression level is altered when cells are damaged by Doxorubicin. […] As shown in the right panel of FIG. 4, the copy number of miRNA-22-3p increases both in cells and serum of patients after anthracycline treatment whereas miRNA-30b, miRNA-148a, miRNA-150-5p, and miRNA-4732-3p decrease their expression levels. […] Indeed, this set of miRNAs regulates genes involved in the aforementioned biological pathways (FIG. 5)

For COc1cccc2c1C(=O)c1c(O)c3c(c(O)c1C2=O)C[C@@](O)(C(=O)CO)C[C@@H]3O[C@H]1C[C@H](N)[C@H](O)[C@H](C)O1 [Doxorubicin], the “copy number of miRNA-22-3p” value was “increases”, the “expression level of miRNA-30b” value was “decrease” and the “expression level of miRNA-148a” value was “decrease”. The “expression level of miRNA-150-5p” value was “decrease” and the “expression level of miRNA-4732-3p” value was “decrease”.
